Data: ChEMBL document CHEMBL1201862, “PubChem BioAssay data set” (2004)
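Method: 48-hour compound exposure of cells in 96-well plates, five concentrations, linear interpolation of endpoints. Abbreviation: GI50, concentration required for 50% inhibition of growth.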 Active and inactive are the calls of the source. Cut-off read from the data, not from the text of the source: active = GI50 up to about 1.1 µM and inactive = higher.

What was measured:
Experiment in all cases: NCI tumour cell line growth inhibition, 48 h
SK-MEL-5 = test system: SK-MEL-5
SK-MEL-28 = test system: SK-MEL-28
HCT-116 = test system: HCT-116
OVCAR-8 = test system: OVCAR-8
U-251 = test system: U-251
RXF 393 = test system: RXF 393
TK-10 = test system: TK-10
UACC-257 = test system: UACC-257
RPMI-8226 = test system: RPMI-8226
NCI/ADR-RES = test system: NCI/ADR-RES
CAKI-1 = test system: CAKI-1
Hs-578T = test system: Hs-578T
SK-OV-3 = test system: SK-OV-3
OVCAR-4 = test system: OVCAR-4
HCT-15 = test system: HCT-15
SK-MEL-2 = test system: SK-MEL-2
DU-145 = test system: DU-145
OVCAR-5 = test system: OVCAR-5
SNB-19 = test system: SNB-19
CCRF-CEM = test system: CCRF-CEM

Row | SMILES | GI50 (SK-MEL-5) | GI50 (SK-MEL-28) | GI50 (HCT-116) | GI50 (OVCAR-8) | GI50 (U-251) | GI50 (RXF 393) | GI50 (TK-10) | GI50 (UACC-257) | GI50 (RPMI-8226) | GI50 (NCI/ADR-RES) | GI50 (CAKI-1) | GI50 (Hs-578T) | GI50 (SK-OV-3) | GI50 (OVCAR-4) | GI50 (HCT-15) | GI50 (SK-MEL-2) | GI50 (DU-145) | GI50 (OVCAR-5) | GI50 (SNB-19) | GI50 (CCRF-CEM)
1 | Nc1nc(O)c2nc3c(nc2n1)C(=O)N(c1ccc(C(=O)O)cc1)C3 | > 100 µM (inactive) | > 100 µM (inactive) | > 100 µM (inactive) | > 100 µM (inactive) | > 100 µM (inactive) | > 100 µM (inactive) | > 100 µM (inactive) | > 100 µM (inactive) | > 100 µM (inactive) | > 100 µM (inactive) | > 100 µM (inactive) | > 100 µM (inactive) | > 100 µM (inactive) | > 100 µM (inactive) | > 100 µM | > 100 µM (inactive) | > 100 µM (inactive) | > 100 µM (inactive) | > 100 µM (inactive) | –
2 | CN1CC[C@@]2(c3cccc(O)c3)CC(=O)/C(=C/c3ccc(Cl)c(Cl)c3)[C@H]1C2 | 2 µM (inactive) | 1.93 µM (inactive) | – | 3.05 µM (inactive) | 1.38 µM (inactive) | 2.66 µM (inactive) | 14 µM (inactive) | 3.41 µM (inactive) | 1.15 µM (inactive) | 2.38 µM (inactive) | – | 2.51 µM (inactive) | – | 4.59 µM (inactive) | 1.98 µM | – | 5.04 µM (inactive) | 4.35 µM (inactive) | 3.26 µM (inactive) | 2.26 µM (inactive)
3 | Sc1nnc(NNc2ccccc2)n1Nc1ccccc1 | 0.488 µM (active) | > 100 µM (inactive) | 2.31 µM (inactive) | 21.2 µM (inactive) | 21.1 µM (inactive) | 1.78 µM (inactive) | > 52.6 µM (inactive) | 0.283 µM (active) | 2.51 µM (inactive) | 34.3 µM (inactive) | > 36.9 µM (inactive) | > 64.3 µM (inactive) | > 100 µM (inactive) | 0.236 µM (active) | 2.1 µM | – | > 79.4 µM (inactive) | > 55.2 µM (inactive) | > 75.9 µM (inactive) | 8.97 µM (inactive)
4 | CCn1c2ccccc2c2cc(NC(=O)c3c(C)nc(O)nc3NCCNCCO)ccc21 | > 100 µM (inactive) | > 100 µM (inactive) | > 100 µM (inactive) | > 100 µM (inactive) | > 100 µM (inactive) | > 100 µM (inactive) | > 100 µM (inactive) | > 100 µM (inactive) | – | > 100 µM (inactive) | > 100 µM (inactive) | > 100 µM (inactive) | > 100 µM (inactive) | > 100 µM (inactive) | > 100 µM | – | > 100 µM (inactive) | > 100 µM (inactive) | > 100 µM (inactive) | > 100 µM (inactive)
5 | COc1ccc(NC(=S)NC(=O)c2ccc3c(c2)Sc2ccccc2O3)c([N+](=O)[O-])c1 | 20.6 µM (inactive) | 40.1 µM (inactive) | 28.9 µM (inactive) | 31 µM (inactive) | 20.2 µM (inactive) | 19.3 µM (inactive) | 17.9 µM (inactive) | 33.1 µM (inactive) | – | 33.6 µM (inactive) | 39.1 µM (inactive) | 14 µM (inactive) | 29.9 µM (inactive) | 14.9 µM (inactive) | 24 µM | 28.6 µM (inactive) | 26.9 µM (inactive) | > 100 µM (inactive) | 21.9 µM (inactive) | 36.4 µM (inactive)
6 | CCOP(=O)(OCC)C(C(=O)OC)C(=O)C(=O)Nc1cccc(O)c1 (stereo unspecified) | > 100 µM (inactive) | > 100 µM (inactive) | > 100 µM (inactive) | > 100 µM (inactive) | > 100 µM (inactive) | > 100 µM (inactive) | > 100 µM (inactive) | > 100 µM (inactive) | – | > 100 µM (inactive) | > 100 µM (inactive) | > 100 µM (inactive) | > 100 µM (inactive) | > 100 µM (inactive) | > 100 µM | > 100 µM (inactive) | > 100 µM (inactive) | > 100 µM (inactive) | > 100 µM (inactive) | > 100 µM (inactive)
7 | COc1cc2ccc1OCc1cccc(n1)COc1ccc(cc1OC)/C=N\CCNCC/N=C\2 | > 100 µM (inactive) | > 100 µM (inactive) | 45.4 µM (inactive) | > 100 µM (inactive) | 33.2 µM (inactive) | > 100 µM (inactive) | > 100 µM (inactive) | > 100 µM (inactive) | > 100 µM (inactive) | > 100 µM (inactive) | > 100 µM (inactive) | 35.4 µM (inactive) | 63.4 µM (inactive) | > 100 µM (inactive) | > 100 µM | > 100 µM (inactive) | > 100 µM (inactive) | > 100 µM (inactive) | > 100 µM (inactive) | –
8 | O=c1[nH]c2ccccc2c2nc3ccccc3n12 | 19.5 µM (inactive) | – | 19.1 µM (inactive) | > 100 µM (inactive) | 46.1 µM (inactive) | 28.7 µM (inactive) | 6.75 µM (inactive) | 38.1 µM (inactive) | > 100 µM (inactive) | 81.1 µM (inactive) | 6.37 µM (inactive) | 65.6 µM (inactive) | 14 µM (inactive) | 2 µM (inactive) | > 100 µM | – | > 100 µM (inactive) | > 100 µM (inactive) | > 100 µM (inactive) | > 100 µM (inactive)
9 | COc1cc(C2SCC(=O)N2c2ccc(-c3ccc(-n4c(-c5ccccc5)nc5ccccc5c4=O)cc3)cc2)cc(OC)c1OC (stereo unspecified) | 22.4 µM (inactive) | 21.9 µM (inactive) | 13.1 µM (inactive) | 43.4 µM (inactive) | 22.2 µM (inactive) | – | 63.1 µM (inactive) | 8.04 µM (inactive) | > 100 µM (inactive) | 29.2 µM (inactive) | 19.1 µM (inactive) | 20 µM (inactive) | 57.3 µM (inactive) | 10.4 µM (inactive) | 28.6 µM | 22.2 µM (inactive) | 78 µM (inactive) | > 100 µM (inactive) | 26.5 µM (inactive) | 10.6 µM (inactive)
10 | N#CC(c1ccccc1)N(CCc1ccccc1)C(=O)c1ccc(C(=O)N(CCc2ccccc2)C(C#N)c2ccccc2)cc1 (stereo unspecified) | 13.5 µM (inactive) | 22.8 µM (inactive) | 14.3 µM (inactive) | 17.6 µM (inactive) | 24.3 µM (inactive) | 21.3 µM (inactive) | 13.9 µM (inactive) | 18.1 µM (inactive) | – | 17.9 µM (inactive) | 30.6 µM (inactive) | 12.9 µM (inactive) | 31.9 µM (inactive) | 18.9 µM (inactive) | 18.6 µM | 19.6 µM (inactive) | 42.6 µM (inactive) | 19.8 µM (inactive) | 30.5 µM (inactive) | 26.1 µM (inactive)
11 | COC(=O)/C=C/c1cc(O)c2c(c1)[C@H](C(=O)OC)[C@@H](c1ccc(O)c(O)c1)O2 | 0.0335 µM (active) | 0.132 µM (active) | 0.0499 µM (active) | 0.169 µM (active) | 0.0664 µM (active) | – | 24.7 µM (inactive) | 17.4 µM (inactive) | 0.0618 µM (active) | 0.158 µM (active) | 0.544 µM (active) | 0.046 µM (active) | 0.319 µM (active) | 2.76 µM (inactive) | 0.0451 µM | 0.0783 µM (active) | 0.273 µM (active) | 35.7 µM (inactive) | 0.0386 µM (active) | 0.0381 µM (active)
12 | Cc1cc2c(s1)C(=O)c1sccc1C2=O | 0.162 µM (active) | 0.2 µM (active) | 0.998 µM (active) | 0.424 µM (active) | 1.29 µM (inactive) | 1.17 µM (inactive) | 2.85 µM (inactive) | 0.194 µM (active) | 1.88 µM (inactive) | 0.459 µM (active) | 1.75 µM (inactive) | 0.417 µM (active) | 2.06 µM (inactive) | 0.561 µM (active) | 1.19 µM | 0.385 µM (active) | 1.83 µM (inactive) | 1.86 µM (inactive) | 1.66 µM (inactive) | –
13 | C[Si](C)(C)OC1c2[nH]c3ccccc3c2CN2C(=O)CCC12 (stereo unspecified) | > 100 µM (inactive) | > 100 µM (inactive) | > 100 µM (inactive) | > 100 µM (inactive) | > 100 µM (inactive) | – | > 100 µM (inactive) | > 100 µM (inactive) | > 100 µM (inactive) | > 100 µM (inactive) | > 100 µM (inactive) | > 100 µM (inactive) | > 100 µM (inactive) | > 100 µM (inactive) | > 100 µM | > 100 µM (inactive) | > 100 µM (inactive) | > 100 µM (inactive) | > 100 µM (inactive) | –
14 | CC(=O)Nc1nc2c(=O)c3ccccc3sc2s1 | > 100 µM (inactive) | – | > 100 µM (inactive) | > 100 µM (inactive) | – | > 100 µM (inactive) | 87.3 µM (inactive) | > 100 µM (inactive) | > 100 µM (inactive) | > 100 µM (inactive) | > 100 µM (inactive) | > 100 µM (inactive) | – | – | > 100 µM | > 100 µM (inactive) | > 100 µM (inactive) | > 100 µM (inactive) | > 100 µM (inactive) | > 100 µM (inactive)
15 | Nc1ncnc2oc(C3OC(COC(=O)c4ccccc4)C(OC(=O)c4ccccc4)C3OC(=O)c3ccccc3)nc12 (stereo unspecified) | > 100 µM (inactive) | > 100 µM (inactive) | > 100 µM (inactive) | > 100 µM (inactive) | > 100 µM (inactive) | > 100 µM (inactive) | > 100 µM (inactive) | > 100 µM (inactive) | > 100 µM (inactive) | > 100 µM (inactive) | > 100 µM (inactive) | 49.2 µM (inactive) | > 100 µM (inactive) | > 100 µM (inactive) | > 100 µM | – | > 100 µM (inactive) | > 100 µM (inactive) | > 100 µM (inactive) | > 100 µM (inactive)
